4 molecules from US9339486B2, “Heterocyclic modulators of cannabinoid receptors” (THE CLEVELAND CLINIC FOUNDATION, priority 2008, dated 2016) can be followed below.

One series addresses rCB2 receptors (Rattus norvegicus (Rat), UniProt Q9QZN9). Put plainly: cAMP activation assay rCB2. The class given is cell-based. How it is done: The compound of Example 3 was tested for agonist activity at the rat CB1 (rCB1) and rCB2 receptors, at eight concentrations, in duplicate: 10, 3, 1, 0.3, 0.1, 0.03, 0.01 and 0.001 μM. Recombinant cells grown to mid-log phase in culture media without antibiotics were detached with PBS containing 5 mM EDTA, centrifuged and resuspended in assay buffer at a concentration of 16.6×10^5 cells/ml. The test was performed in 96 well plates. For testing, 12 μl of cells ([…]) were mixed with 12 μl of agonist at increasing concentrations. […] The plates were then incubated for 30 min at room temperature. After addition of the lysis buffer, cAMP concentrations were estimated, according to the manufacturer specification, with the HTRF kit from Cis-Bio International (Catalogue number 62AM2PEB).

Series [1] concerns the target T1, CB2 (Homo sapiens (Human), UniProt P34972). Put plainly: CB1/CB2 Functional Assay (GTPγ[35S]), CB2 membranes. It is filed as biochemical. How it is done:
(§1) A dose response curve was generated at eight concentrations in duplicate on CB1 and CB2 in light of reference agonists. The reference agonists for cannabinoid receptors was CP55,940. See FIGS. 1A, 1B, 2A, 2B, 3A and 3B.
(§2) Membranes (CB1, ES-110-MG or CB2, ES-111-MG) were mixed with GDP (volume:volume) and incubated for at least 15 min on ice. In parallel, GTPγ[^35S] were mixed with the beads (volume:volume) just before starting the reaction. The following reagents were successively added in the wells of an Optiplate: 50 μl of ligand, 20 μl of the membranes:GDP mix, 10 μl of assay buffer for agonist testing and 20 μl of the GTPγ[^35S]: beads mix. The plates were covered with a topseal, shaken on an orbital shaker for 2 min, and then incubated between 30 to 60 min. at room temperature. Then the plates were centrifuged for 10 min at 2000 rpm, incubated at room temperature between 1 to 4 hours and counted for 1 min with a PerkinElmer TopCount reader.

The target of series [2] is T1, CB2. The series can be described thus: CB2 Binding Assay ([3H]WIN 55212-2, cell membrane homogenates). On the procedure:
(§3) Cell membrane homogenates (15 μg protein) were incubated for 120 min at 37° C. with 0.8 nM [3H]WIN 55212-2 (the reference standard [Munro, 1993 #1321]) in the absence or presence of the test compound in a buffer containing 50 mM HEPES/Tris HCL (pH 7.4), 5 mM MgCl2, 2.5 mM EGTA, and 0.1% BSA. Nonspecific binding was determined in the presence of 10 μM WIN 55212-2. After being incubated, the samples were filtered rapidly under vacuum through glass fiber filters (GF/B; Packard) presoaked with 0.3% PEI and rinsed several times with ice-cold buffer containing 50 mM Tris HCl (pH 7.4) and 0.5% BSA using a 96-sample cell harvester (Unifilter; Packard). The filters were dried then counted for radioactivity in a scintillation counter (Topcount; Packard) using a scintillation cocktail (Microscint 0; Packard). The results were expressed as a percentage of the inhibition of the control radioligand-specific binding. The reference standard compounds were tested in each experiment at several concentrations to obtain a competition curve from which its IC50 was calculated.

Series [3] addresses T2, CB1 (Homo sapiens (Human), UniProt P21554). Put plainly: CB1 Binding Assay ([3H]CP 55940, cell membrane homogenates). How it is done: as §3, with “After” for “Cell membrane homogenates (15 μg protein) were incubated for 120 min at 37° C. with 0.8 nM [3H]WIN 55212-2 (the reference standard [Munro, 1993 #1321]) in the absence or presence of the test compound in a buffer containing 50 mM HEPES/Tris HCL (pH 7.4), 5 mM MgCl2, 2.5 mM EGTA, and 0.1% BSA. Nonspecific binding was determined in the presence of 10 μM WIN 55212-2. After”

Series [4] has as its target T2, CB1. Put plainly: CB1/CB2 Functional Assay (GTPγ[35S]), CB1 membranes. It is filed as biochemical. How it is done:
as §1, §2

Series [5] relates to paclitaxel-induced neuropathy. The series can be described thus: Prevention of neuropathy induced by paclitaxel. The class given is in vivo, rat. The conditions noted are these: paclitaxel model. On the procedure: A mixture of saline and CREMOPHOR® ELP 10% was used as vehicle for paclitaxel. It was injected at a concentration of 1.0 mg/kg intraperitoneally to the chemotherapy-treated group of rats on 4 consecutive days for a final cumulative dose of 4 mg/kg to 18 rats.
Paw withdrawal thresholds were determined daily in both hind paws of each animal using calibrated von Frey monofilaments according to an up-down procedure. A series of von Frey filaments with exponentially incremental degrees of stiffness (0.4, 0.7, 1.2, 2.0, 3.6, 5.5, 8.5, and 15.1 g) was used to measure the 50% threshold for both hindpaw withdrawal in awake, unrestrained rats. Chaplan, S. R., Quantitative assessment of tactile allodynia in the rat paw, Journal of Neuroscience Methods, 1994, 53:55-63. Brisk paw withdrawal from the pressure of a filament gently bent against the plantar surface of the paw was defined as a positive response, and absence of withdrawal within 6 sec was considered a negative response. The series of filaments touched the hindpaw in sequential ascending or descending order of stiffness until the threshold of response was crossed (allowing about 10 sec between each increment). Each time the threshold was crossed, the direction of stimulus presentation was reversed and the procedure resumed. Four responses were collected after the first threshold detection, and the 50% withdrawal thresholds was interpolated. In cases in which the response thresholds fall outside the range of detection, 15.1 and 0.25 g were assigned for continuous negative or positive responses, respectively, to the limits of stimulation. FIG. 17 and FIG. 18 show results from these experiments and that peripheral neuropathy started to develop within a few days. FIG. 18 reflects that a plateau was reached by the 10th day.
Group 1 of rats received paclitaxel for four days, as described immediately above in subpart (A) titled “Paclitaxel-induced Neuropathy.” In group 2, a dose of 15 mg/kg of the compound of Example 3, injected intraperitoneally was administered 30 minutes prior to the administration of paclitaxel. In group 3, vehicle of the compound of Example 3 was administered 30 min prior to the administration of paclitaxel. Paw withdrawal thresholds were determined daily in both hind paws of each animal using calibrated von Frey monofilaments according to an up-down procedure as described immediately above in subpart (A) titled “Paclitaxel-induced Neuropathy.” The results are shown in FIG. 17.
FIGS. 19A and 19B show results from an experiment in which three groups of rats were administered 0.25 mL of the compound of Example 3 or the vehicle, a mixture of NMP, propylene glycol, chromophore ELP (25%, 25%, 10%) in sterile water 30 min prior to the administration of paclitaxel. Two of the three experimental groups continued to receive either the vehicle or the compound of Example 3 daily for 11 more days.

For a further series, the system named is naïve rats. Put plainly: Open field chamber testing. It is filed as in vivo, rat. The conditions noted are these: i.p.: Example 3 15 mg/kg, WIN 55,212-2 7 mg/kg, haloperidol 1 mg/kg. How it is done:
The automated open-field chamber (Med Associates ENV-515 Test Environment, St. Albans, Vt.) 43.2×43.2×30.5 cm (L×W×H) equipped with three pairs of 16 infrared arrays that continually monitored the animal's movement was used to determine potential CNS effects of the compound of Example 3, WIN55212-2, and haloperidol in naïve rats. Rats were individually tested 15 min after i.p. drug administration. The infrared beams were set 2.5 cm apart horizontally and at a height of 3 cm above the floor, with the rearing array set at 12 cm from the floor. The area in the box was divided into 4 equal quadrants (zones), with data collected within each quadrant and across quadrants (zone entries). An ambulatory movement was defined as a motion of at least 5 cm and was coded by quadrant. Vertical movements were counted when the rat moved vertically a minimum of 12 cm from the floor. Zone entries were defined as an entry into a zone (from another zone). Entry into a zone was counted when the rat was far enough into the zone to break 2 sets of photoelectric beams for the new zone beams during an ambulatory movement.

The mark [6] stands for this setting: CB2, test concentration 1.0E−05 (MD).
Where [7] appears, read: CB1, test concentration 1.0E−05 (MD).

T2 sequence (P21554 whole entry): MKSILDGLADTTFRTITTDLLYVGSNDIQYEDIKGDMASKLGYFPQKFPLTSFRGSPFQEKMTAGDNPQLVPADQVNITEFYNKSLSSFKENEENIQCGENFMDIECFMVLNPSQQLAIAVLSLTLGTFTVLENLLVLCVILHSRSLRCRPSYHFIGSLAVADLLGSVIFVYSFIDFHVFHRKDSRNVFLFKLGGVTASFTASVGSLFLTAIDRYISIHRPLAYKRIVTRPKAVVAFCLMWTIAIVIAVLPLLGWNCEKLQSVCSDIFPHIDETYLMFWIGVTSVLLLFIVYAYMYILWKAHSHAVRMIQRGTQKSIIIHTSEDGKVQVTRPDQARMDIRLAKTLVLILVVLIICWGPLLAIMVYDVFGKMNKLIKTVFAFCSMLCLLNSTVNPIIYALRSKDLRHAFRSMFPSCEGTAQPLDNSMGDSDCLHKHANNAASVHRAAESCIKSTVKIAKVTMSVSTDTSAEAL
T1 sequence (P34972 whole entry): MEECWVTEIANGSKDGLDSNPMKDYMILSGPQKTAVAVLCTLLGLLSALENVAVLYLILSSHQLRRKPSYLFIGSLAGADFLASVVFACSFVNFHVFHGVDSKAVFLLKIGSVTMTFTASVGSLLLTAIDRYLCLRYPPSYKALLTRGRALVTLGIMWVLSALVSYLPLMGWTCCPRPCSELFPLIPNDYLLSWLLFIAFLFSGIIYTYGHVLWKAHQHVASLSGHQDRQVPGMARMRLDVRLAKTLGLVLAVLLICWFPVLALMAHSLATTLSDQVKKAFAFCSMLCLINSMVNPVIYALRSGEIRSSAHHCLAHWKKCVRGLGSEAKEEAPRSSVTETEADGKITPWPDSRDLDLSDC

The EC50 is the midpoint of the concentration-response curve. Consider `CCCCCCC(C)(C)c1ccc([C@@H]2C[C@H](O)CC[C@H]2CCCO)c(O)c1` [CP55,940, reference compound], for which the concentration for a half-maximal effect (EC50) at rCB2 receptors is 1.13 ± 0.13 nM.
`CC1(Cc2ccccc2)COc2ccc(C(=O)NC3CCCCC3)cc21` (stereo not drawn) [Example 5, 3-benzyl-3-methyl-2,3-dihydrobenzofuran-5-carboxylic acid-cyclohexylamide]: the entries for the “Compound Function” value at CB2 [1] and on CB1 [4] were “Agonist” and “Inverse”, respectively. Further, the EC50 on CB2 [1] (read-out: EC50 (nM) for GTP Binding) came to 409 nM. Also, the “% Activation Average” value is recorded as 55.71% at CB2 [1] (reference agonist CP55,940) and −36.02% at CB1 [4] (reference agonist CP55,940). In addition, the “% Inhibition of Control Specific Binding” value was found to be 72% on CB2 [2] (setting [6]) and 43% at CB1 [3] (setting [7]). Moreover, the “% of Control Specific Binding Mean” value is listed as 27.5% at CB2 [2] (setting [6]) and 57.2% at CB1 [3] (setting [7]). Further, the “% of Control Specific Binding 1st” value at CB2 [2] (CB2, test concentration 1.0E−05 (MD), first replicate) was determined as 29.9%; at CB1 [3] (CB1, test concentration 1.0E−05 (MD), first replicate) it was 53.5%. In addition, the “% of Control Specific Binding 2nd” value stood at 25.1% at CB2 [2] (CB2, test concentration 1.0E−05 (MD), second replicate) and 60.8% on CB1 [3] (CB1, test concentration 1.0E−05 (MD), second replicate). In addition, the “% Inhibition of Control Specific Binding CB2” value on CB2 [2] (as repeated in Table 4) was determined as 72%. At CB1 [3] (as repeated in Table 3), the “% Inhibition of Control Specific Binding CB1” value came out at 43%.
Regarding `COc1ccc2[nH]cc(CCNC(C)=O)c2c1` [Melatonin, reference compound], the protection against neuropathy result in series [5] is “did not provide any protection”.
As to `Cc1c(C(=O)c2cccc3ccccc23)c2cccc3c2n1[C@H](CN1CCOCC1)CO3` [WIN 55,212-2, reference compound], in the series on naïve rats, the “exploratory behavior in the open field (distance traveled, ambulatory time, rearing, zone entries)” value is recorded as “decreased exploratory behavior”.
